Results as given in patent US8722849B2, “Polypeptides” (Novo Nordisk A/S, priority 2011, dated 2014).
Values after ≈ are worked out from the molar mass of the structure shown. Like-named read-outs stand apart in the source and are kept apart here. Starred links: 1 amine or outer side, 2 acyl side, 3 side chain; linkers in the order of their positions; H or OH if unused. Positions of bridges follow the written chain, without caps; N, C: chain ends. Residues, ends and D or L forms follow the SMILES beside them. *: point of attachment. C20 diacid = O=C(O)CCCCCCCCCCCCCCCCCCC(=O)*; γGlu = O=C(O)[C@H](CCC(=O)[*:2])N[*:1]

Key:
[1] = biological target: T1, human calcitonin receptor (Homo sapiens, UniProt P30988); assay: Assay (II)a functional CRE-luciferase assay, human calcitonin receptor; format: cell-based; conditions: Table 7; human calcitonin (CTa) receptor
T1 construct: expressed in transfected cells; host or cells: BHK570
T1 sequence (P30988 25-474): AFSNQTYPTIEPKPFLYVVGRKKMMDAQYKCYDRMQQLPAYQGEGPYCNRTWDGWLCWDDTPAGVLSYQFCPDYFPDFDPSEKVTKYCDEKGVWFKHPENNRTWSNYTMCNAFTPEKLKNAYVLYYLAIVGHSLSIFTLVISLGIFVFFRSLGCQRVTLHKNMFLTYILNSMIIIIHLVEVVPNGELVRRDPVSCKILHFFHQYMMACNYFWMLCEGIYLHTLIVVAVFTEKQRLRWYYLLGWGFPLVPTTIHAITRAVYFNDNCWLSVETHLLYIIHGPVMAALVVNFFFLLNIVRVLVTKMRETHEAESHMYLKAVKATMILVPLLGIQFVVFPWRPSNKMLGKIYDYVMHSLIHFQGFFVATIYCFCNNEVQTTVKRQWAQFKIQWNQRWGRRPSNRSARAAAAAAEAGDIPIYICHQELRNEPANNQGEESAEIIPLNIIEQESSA

[2] = Assay (III) ThT fibrillation assay for physical stability; format: physicochemical
Procedure, shortened: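 Freshly prepared formulations, pH-adjusted, with 1 μM ThT; four or eight replicates incubated at 37 °C under 960 rpm orbital shaking. Fluorescence (ex 444/em 485 nm) read every 20 min; […]. Peptide concentration measured by RP-HPLC before and after the run.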

[3] = Assay (IV) determination of solubility; format: physicochemical
Procedure, shortened: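 Solubility is measured across pH 3.0–8.0 by mixing a ~500 nmol/ml aqueous polypeptide stock 1:1 with 100 mM glycylglycine or bistrispropane buffers. Samples stand 18 hours at room temperature, then are centrifuged and the soluble concentration is determined by HPLC.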

[4] = biological target: T2, human amylin receptor (amylin 3(a) receptor: human calcitonin receptor + RAMP-3) (Homo sapiens, UniProt O60896+P30988); assay: Assay (II)a functional CRE-luciferase assay, human amylin receptor; format: cell-based; conditions: Table 2; BHK amylin 3(a)-receptor/CRE-luc cells
T2 construct: expressed in transfected cells; host or cells: BHK570
T2 sequence (P30988 25-474): T1 sequence (P30988 25-474)
T2 sequence (O60896 24-148 partner): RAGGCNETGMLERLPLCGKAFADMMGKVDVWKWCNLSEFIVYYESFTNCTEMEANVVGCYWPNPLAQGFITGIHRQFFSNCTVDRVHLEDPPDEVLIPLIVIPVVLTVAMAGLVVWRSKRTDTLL

[5] = bistrispropane buffer, pH 6, pH 6.0, read-out: Solubility pH 6.0
[6] = bistrispropane buffer, pH 6.5, pH 6.5, read-out: Solubility pH 6.5
[7] = bistrispropane buffer, pH 7, pH 7.0, 18 hours at room temperature, Table 3, read-out: Solubility pH 7.0
[8] = bistrispropane buffer, pH 7, pH 7.0, read-out: Solubility pH 7.0
[9] = bistrispropane buffer, pH 7.5, pH 7.5, read-out: Solubility pH 7.5
[10] = bistrispropane buffer, pH 8, pH 8.0, read-out: Solubility pH 8.0
[11] = glycylglycine buffer, pH 3, pH 3.0, read-out: Solubility pH 3.0
[12] = glycylglycine buffer, pH 4, pH 4.0, 18 hours at room temperature, Table 2, read-out: Solubility pH 4.0
[13] = glycylglycine buffer, pH 4, pH 4.0, read-out: Solubility pH 4.0
[14] = glycylglycine buffer, pH 5, pH 5.0, read-out: Solubility pH 5.0

SMILES	EC50 [1]	ThT pH 4.0 lag time ([2]; Table 8)	ThT pH 4.0 lag time ([2]; ThT fibrillation assay)	ThT pH 4.0 lag time (h) ([2]; ThT fibrillation assay)	solubility at 18 h [3, 5]	solubility at 18 h [3, 6]	solubility at 18 h [3, 7]	solubility at 18 h ([3]; bistrispropane buffer, pH 7, pH 7.0, Table 8, read-out: Solubility pH 7.0)	solubility at 18 h [3, 8]	solubility at 18 h [3, 9]	solubility at 18 h [3, 10]	solubility at 18 h [3, 11]	solubility at 18 h [3, 12]	solubility at 18 h [3, 13]	solubility at 18 h [3, 14]	EC50 [4]
CC[C@H](C)[C@H](NC(=O)[C@@H]1CCCN1C(=O)CNC(=O)[C@H](Cc1ccccc1)NC(=O)[C@H](CC(N)=O)NC(=O)[C@H](CC(N)=O)NC(=O)[C@H](CO)NC(=O)[C@H](CO)NC(=O)[C@H](Cc1c[nH]cn1)NC(=O)[C@H](Cc1c[nH]cn1)NC(=O)[C@H](CC(C)C)NC(=O)[C@H](Cc1ccccc1)NC(=O)[C@H](CCC(=O)O)NC(=O)[C@H](C)NC(=O)[C@H](CC(C)C)NC(=O)[C@H](CCCNC(=N)N)NC(=O)[C@H](CCC(N)=O)NC(=O)[C@@H](NC(=O)[C@H](C)NC(=O)[C@@H]1CSSC[C@H](NC(=O)CC[C@H](NC(=O)CCCCCCCCCCCCCCCCCCC(=O)O)C(=O)O)C(=O)N[C@@H](CC(N)=O)C(=O)N[C@@H]([C@@H](C)O)C(=O)N[C@@H](C)C(=O)N[C@@H]([C@@H](C)O)C(=O)N1)[C@@H](C)O)C(=O)N[C@@H](CC(C)C)C(=O)N1CCC[C@H]1C(=O)N1CCC[C@H]1C(=O)N[C@H](C(=O)N[C@@H](CC(N)=O)C(=O)N[C@H](C(=O)NCC(=O)N[C@@H](CO)C(=O)N[C@@H](Cc1c[nH]cn1)C(=O)N[C@H](C(=O)N[C@@H](Cc1ccc(O)cc1)C(N)=O)[C@@H](C)O)C(C)C)[C@@H](C)O [Example 75, N-alpha-[(S)-4-Carboxy-4-(19-carboxynonadecanoylamino)butyryl]-[des1,Glu14,His17,His35]-pramlintide] ({C20 diacid-γGlu}-CNTATCATQRLAEFLHHSSNNFGPILPPTNVGSHTY-NH2; disulfide 1-6 (inferred))	0.286 nM	28 h	28 h	28 h	> 200 µM	193 µM (≈ 840 µg/mL)	> 200 µM	> 200 µM	> 200 µM	> 200 µM	> 200 µM	> 200 µM	> 200 µM	> 200 µM	> 200 µM	0.365 nM
CC[C@H](C)[C@H](NC(=O)[C@@H]1CCCN1C(=O)CNC(=O)[C@H](Cc1ccccc1)NC(=O)[C@H](CC(N)=O)NC(=O)[C@H](CC(N)=O)NC(=O)[C@H](CO)NC(=O)[C@H](CO)NC(=O)[C@H](CCCNC(=N)N)NC(=O)[C@H](Cc1c[nH]cn1)NC(=O)[C@H](CC(C)C)NC(=O)[C@H](Cc1ccccc1)NC(=O)[C@H](CCC(=O)O)NC(=O)[C@H](C)NC(=O)[C@H](CC(C)C)NC(=O)[C@H](CCCNC(=N)N)NC(=O)[C@H](CCC(N)=O)NC(=O)[C@@H](NC(=O)[C@H](C)NC(=O)[C@@H]1CSSC[C@H](NC(=O)[C@H](Cc2c[nH]cn2)NC(=O)CC[C@H](NC(=O)CCCCCCCCCCCCCCCCCCC(=O)O)C(=O)O)C(=O)N[C@@H](CC(N)=O)C(=O)N[C@@H]([C@@H](C)O)C(=O)N[C@@H](C)C(=O)N[C@@H]([C@@H](C)O)C(=O)N1)[C@@H](C)O)C(=O)N[C@@H](CC(C)C)C(=O)N1CCC[C@H]1C(=O)N1CCC[C@H]1C(=O)N[C@H](C(=O)N[C@@H](CC(N)=O)C(=O)N[C@H](C(=O)NCC(=O)N[C@@H](CO)C(=O)N[C@@H](Cc1c[nH]cn1)C(=O)N[C@H](C(=O)N[C@@H](Cc1ccc(O)cc1)C(N)=O)[C@@H](C)O)C(C)C)[C@@H](C)O [Example 77, N-alpha-[(S)-4-Carboxy-4-(19-carboxynonadecanoylamino)butyryl]-[His1,Glu14,His17,Arg18,His35]-pramlintide] ({C20 diacid-γGlu}-HCNTATCATQRLAEFLHRSSNNFGPILPPTNVGSHTY-NH2; disulfide 2-7 (inferred); C-terminus assumed)	0.11 nM	–	>45 h	>45 h	185 µM (≈ 834 µg/mL)	23 µM (≈ 104 µg/mL)	–	–	5 µM (≈ 22.5 µg/mL)	33 µM (≈ 149 µg/mL)	94 µM (≈ 424 µg/mL)	> 200 µM	> 200 µM	> 200 µM	> 200 µM	0.066 nM
CC[C@H](C)[C@H](NC(=O)[C@@H]1CCCN1C(=O)CNC(=O)[C@H](Cc1ccccc1)NC(=O)[C@H](CC(N)=O)NC(=O)[C@H](CC(N)=O)NC(=O)[C@H](CO)NC(=O)[C@H](CO)NC(=O)[C@H](CCCNC(=N)N)NC(=O)[C@H](Cc1c[nH]cn1)NC(=O)[C@H](CC(C)C)NC(=O)[C@H](Cc1ccccc1)NC(=O)[C@H](CCC(=O)O)NC(=O)[C@H](C)NC(=O)[C@H](CC(C)C)NC(=O)[C@H](CCCNC(=N)N)NC(=O)[C@H](CCC(N)=O)NC(=O)[C@@H](NC(=O)[C@H](C)NC(=O)[C@@H]1CSSC[C@H](NC(=O)[C@H](CCCCN)NC(=O)CC[C@H](NC(=O)CCCCCCCCCCCCCCCCCCC(=O)O)C(=O)O)C(=O)N[C@@H](CC(N)=O)C(=O)N[C@@H]([C@@H](C)O)C(=O)N[C@@H](C)C(=O)N[C@@H]([C@@H](C)O)C(=O)N1)[C@@H](C)O)C(=O)N[C@@H](CC(C)C)C(=O)N1CCC[C@H]1C(=O)N1CCC[C@H]1C(=O)N[C@H](C(=O)N[C@@H](CC(N)=O)C(=O)N[C@H](C(=O)NCC(=O)N[C@@H](CO)C(=O)N[C@@H](Cc1c[nH]cn1)C(=O)N[C@H](C(=O)N[C@@H](Cc1ccc(O)cc1)C(N)=O)[C@@H](C)O)C(C)C)[C@@H](C)O [Example 78, N-alpha-[(S)-4-Carboxy-4-(19-carboxynonadecanoylamino)butyryl]-[Glu14,His17,Arg18,His35]-pramlintide] ({C20 diacid-γGlu}-KCNTATCATQRLAEFLHRSSNNFGPILPPTNVGSHTY-NH2; disulfide 2-7 (inferred); C-terminus assumed)	0.0965 nM	–	>45 h	>45 h	> 200 µM	> 200 µM	122 µM (≈ 549 µg/mL)	–	122 µM (≈ 549 µg/mL)	92 µM (≈ 414 µg/mL)	79 µM (≈ 355 µg/mL)	> 200 µM	> 200 µM	> 200 µM	> 200 µM	0.0685 nM
CC[C@H](C)[C@H](NC(=O)[C@@H]1CCCN1C(=O)CNC(=O)[C@H](Cc1ccccc1)NC(=O)[C@H](CC(N)=O)NC(=O)[C@H](CC(N)=O)NC(=O)[C@H](CO)NC(=O)[C@H](CO)NC(=O)[C@H](CCCNC(=N)N)NC(=O)[C@H](Cc1c[nH]cn1)NC(=O)[C@H](CC(C)C)NC(=O)[C@H](Cc1ccccc1)NC(=O)[C@H](CCC(=O)O)NC(=O)[C@H](C)NC(=O)[C@H](CC(C)C)NC(=O)[C@H](CCCNC(=N)N)NC(=O)[C@H](CCC(N)=O)NC(=O)[C@@H](NC(=O)[C@H](C)NC(=O)[C@@H]1CSSC[C@H](NC(=O)[C@H](CCCCN)NC(=O)CC[C@H](NC(=O)CCCCCCCCCCCCCCCCCCC(=O)O)C(=O)O)C(=O)N[C@@H](CC(N)=O)C(=O)N[C@@H]([C@@H](C)O)C(=O)N[C@@H](C)C(=O)N[C@@H]([C@@H](C)O)C(=O)N1)[C@@H](C)O)C(=O)N[C@@H](CC(C)C)C(=O)N1CCC[C@H]1C(=O)N1CCC[C@H]1C(=O)N[C@H](C(=O)N[C@@H](CC(N)=O)C(=O)N[C@H](C(=O)NCC(=O)N[C@@H](CO)C(=O)N[C@@H](CC(N)=O)C(=O)N[C@H](C(=O)N[C@@H](Cc1ccc(O)cc1)C(N)=O)[C@@H](C)O)C(C)C)[C@@H](C)O [Example 79, N-alpha-[(S)-4-Carboxy-4-(19-carboxynonadecanoylamino)butyryl]-[Glu14,His17,Arg18]-pramlintide] ({C20 diacid-γGlu}-KCNTATCATQRLAEFLHRSSNNFGPILPPTNVGSNTY-NH2; disulfide 2-7 (inferred))	0.077 nM	–	–	16 h	> 200 µM	> 200 µM	> 200 µM	–	> 200 µM	> 200 µM	> 200 µM	> 200 µM	> 200 µM	> 200 µM	> 200 µM	0.0565 nM
